The record followed here is ChEMBL document CHEMBL5291721, “A preclinical secondary pharmacology resource illuminates target-adverse drug reaction associations of marketed drugs” (Nat Commun, 2023).

One assay addresses T1, Adenosine receptor A3 (Homo sapiens, UniProt P0DMS8).
T1 sequence (P0DMS8 whole entry): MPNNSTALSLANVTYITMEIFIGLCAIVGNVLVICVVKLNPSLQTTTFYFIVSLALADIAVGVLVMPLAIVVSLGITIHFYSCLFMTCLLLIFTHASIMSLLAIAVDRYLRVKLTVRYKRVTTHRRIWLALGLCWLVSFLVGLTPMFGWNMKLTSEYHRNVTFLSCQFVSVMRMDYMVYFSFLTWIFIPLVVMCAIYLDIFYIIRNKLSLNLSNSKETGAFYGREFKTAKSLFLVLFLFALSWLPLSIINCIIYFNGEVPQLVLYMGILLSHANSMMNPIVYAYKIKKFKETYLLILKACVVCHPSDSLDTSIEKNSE

The target of assay [1] is T2, Alpha-2A adrenergic receptor (Homo sapiens, UniProt P08913).
T2 sequence (P08913 whole entry): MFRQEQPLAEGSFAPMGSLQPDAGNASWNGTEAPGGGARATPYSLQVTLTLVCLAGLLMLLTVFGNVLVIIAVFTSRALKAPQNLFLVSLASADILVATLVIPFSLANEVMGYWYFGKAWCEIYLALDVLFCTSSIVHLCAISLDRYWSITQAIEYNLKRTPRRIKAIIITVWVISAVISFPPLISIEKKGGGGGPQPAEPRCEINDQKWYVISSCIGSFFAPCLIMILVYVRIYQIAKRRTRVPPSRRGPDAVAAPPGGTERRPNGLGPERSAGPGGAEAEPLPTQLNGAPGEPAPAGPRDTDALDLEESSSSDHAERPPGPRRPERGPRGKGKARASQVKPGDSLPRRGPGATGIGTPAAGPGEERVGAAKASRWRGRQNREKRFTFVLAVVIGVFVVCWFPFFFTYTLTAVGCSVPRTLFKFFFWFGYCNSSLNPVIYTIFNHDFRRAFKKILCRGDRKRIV
Format: functional, cell-based.

Assay [2] concerns the target T3, Cholecystokinin receptor type A (Homo sapiens, UniProt P32238).
T3 sequence (P32238 whole entry): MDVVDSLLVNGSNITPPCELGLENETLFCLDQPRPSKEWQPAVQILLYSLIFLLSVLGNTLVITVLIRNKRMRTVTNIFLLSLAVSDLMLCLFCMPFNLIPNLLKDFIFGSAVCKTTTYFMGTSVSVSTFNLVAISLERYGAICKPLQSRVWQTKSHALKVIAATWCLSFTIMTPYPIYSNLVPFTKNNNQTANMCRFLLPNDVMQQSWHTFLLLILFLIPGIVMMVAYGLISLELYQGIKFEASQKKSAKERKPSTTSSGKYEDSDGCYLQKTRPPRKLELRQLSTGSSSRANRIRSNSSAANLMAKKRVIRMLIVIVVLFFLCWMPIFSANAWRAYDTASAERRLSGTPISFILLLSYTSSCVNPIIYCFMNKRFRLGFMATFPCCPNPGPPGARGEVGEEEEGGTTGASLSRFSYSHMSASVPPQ

Assay [3] has as its target T4, Muscarinic acetylcholine receptor M2 (Homo sapiens, UniProt P08172).
T4 sequence (P08172 whole entry): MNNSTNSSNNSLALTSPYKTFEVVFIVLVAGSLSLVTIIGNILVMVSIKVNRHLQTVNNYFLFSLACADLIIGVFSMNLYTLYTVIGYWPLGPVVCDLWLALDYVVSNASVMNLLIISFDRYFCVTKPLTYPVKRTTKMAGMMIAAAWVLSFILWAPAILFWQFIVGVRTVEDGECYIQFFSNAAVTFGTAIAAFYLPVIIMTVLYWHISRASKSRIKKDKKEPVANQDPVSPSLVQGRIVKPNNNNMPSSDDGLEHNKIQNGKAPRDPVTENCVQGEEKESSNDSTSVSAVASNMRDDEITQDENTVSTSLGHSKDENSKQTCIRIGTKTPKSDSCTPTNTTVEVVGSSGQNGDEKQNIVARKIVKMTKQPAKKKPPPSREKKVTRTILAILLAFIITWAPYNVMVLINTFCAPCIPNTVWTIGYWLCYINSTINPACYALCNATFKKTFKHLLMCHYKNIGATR
Format: functional, cell-based.

Assay [4] has as its target Glutamate receptor ionotropic, NMDA 1 (Rattus norvegicus, UniProt P35439).
For a further assay, the target named is Histamine H2 receptor (Homo sapiens, UniProt P25021). Format: functional, cell-based.
Sequence of Histamine H2 receptor (P25021 whole entry): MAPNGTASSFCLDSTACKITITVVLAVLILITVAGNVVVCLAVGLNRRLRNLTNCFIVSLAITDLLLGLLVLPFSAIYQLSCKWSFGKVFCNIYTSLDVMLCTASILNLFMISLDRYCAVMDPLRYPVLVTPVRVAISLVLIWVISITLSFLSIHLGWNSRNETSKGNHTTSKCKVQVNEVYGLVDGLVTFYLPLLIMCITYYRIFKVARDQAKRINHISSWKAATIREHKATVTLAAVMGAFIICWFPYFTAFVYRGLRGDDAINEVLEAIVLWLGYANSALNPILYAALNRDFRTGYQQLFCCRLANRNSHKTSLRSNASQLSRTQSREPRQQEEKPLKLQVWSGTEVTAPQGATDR
Assay [5] has as its target 3',5'-cyclic-AMP phosphodiesterase 4D (Homo sapiens, UniProt Q08499). Format: functional.
The target of assay [6] is T5, Equilibrative nucleoside transporter 1 (Homo sapiens, UniProt Q99808).
T5 sequence (Q99808 whole entry): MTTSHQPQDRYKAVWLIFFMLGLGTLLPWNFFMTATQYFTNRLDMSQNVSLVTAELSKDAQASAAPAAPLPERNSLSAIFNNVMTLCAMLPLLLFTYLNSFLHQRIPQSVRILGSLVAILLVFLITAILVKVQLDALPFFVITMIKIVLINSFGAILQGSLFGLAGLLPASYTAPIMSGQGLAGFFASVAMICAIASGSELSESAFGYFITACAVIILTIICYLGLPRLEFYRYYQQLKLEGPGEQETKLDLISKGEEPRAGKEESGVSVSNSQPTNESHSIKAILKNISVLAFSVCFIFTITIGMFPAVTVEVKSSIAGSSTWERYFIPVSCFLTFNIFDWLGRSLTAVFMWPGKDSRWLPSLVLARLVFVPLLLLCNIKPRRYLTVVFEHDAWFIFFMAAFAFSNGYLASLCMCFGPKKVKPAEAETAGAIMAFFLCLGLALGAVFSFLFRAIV

For another assay, the target named is T6, Thromboxane A2 receptor (Homo sapiens, UniProt P21731).
T6 sequence (P21731 whole entry): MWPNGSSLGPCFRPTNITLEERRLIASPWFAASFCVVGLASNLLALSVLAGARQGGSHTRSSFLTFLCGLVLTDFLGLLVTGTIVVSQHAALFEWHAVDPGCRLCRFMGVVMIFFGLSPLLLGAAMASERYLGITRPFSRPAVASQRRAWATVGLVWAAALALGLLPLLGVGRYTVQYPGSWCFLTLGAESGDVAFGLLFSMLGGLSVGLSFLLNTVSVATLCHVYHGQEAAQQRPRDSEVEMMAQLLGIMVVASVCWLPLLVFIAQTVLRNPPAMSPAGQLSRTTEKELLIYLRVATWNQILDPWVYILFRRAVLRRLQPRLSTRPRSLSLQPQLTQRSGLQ

Assay [7] addresses Sodium-dependent dopamine transporter (Homo sapiens, UniProt Q01959).
For another assay, the target named is Histamine H3 receptor (Homo sapiens, UniProt Q9Y5N1).
Sequence of Histamine H3 receptor (Q9Y5N1 whole entry): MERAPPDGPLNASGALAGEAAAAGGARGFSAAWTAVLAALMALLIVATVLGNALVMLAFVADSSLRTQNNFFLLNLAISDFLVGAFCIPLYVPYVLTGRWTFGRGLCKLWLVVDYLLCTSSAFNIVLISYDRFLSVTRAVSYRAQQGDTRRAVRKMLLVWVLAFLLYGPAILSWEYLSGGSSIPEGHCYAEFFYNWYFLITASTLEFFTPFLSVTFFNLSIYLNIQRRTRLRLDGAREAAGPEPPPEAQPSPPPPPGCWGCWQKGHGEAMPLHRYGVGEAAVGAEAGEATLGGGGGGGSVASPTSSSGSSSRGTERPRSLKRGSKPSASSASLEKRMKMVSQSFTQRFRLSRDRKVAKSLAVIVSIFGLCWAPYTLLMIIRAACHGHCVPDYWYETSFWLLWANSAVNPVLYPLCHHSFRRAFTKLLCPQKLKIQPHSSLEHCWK

Structures are written as SMILES. Some results are limits rather than exact numbers.
Also: assay procedure not described here.

Sequence of 3',5'-cyclic-AMP phosphodiesterase 4D (Q08499 whole entry): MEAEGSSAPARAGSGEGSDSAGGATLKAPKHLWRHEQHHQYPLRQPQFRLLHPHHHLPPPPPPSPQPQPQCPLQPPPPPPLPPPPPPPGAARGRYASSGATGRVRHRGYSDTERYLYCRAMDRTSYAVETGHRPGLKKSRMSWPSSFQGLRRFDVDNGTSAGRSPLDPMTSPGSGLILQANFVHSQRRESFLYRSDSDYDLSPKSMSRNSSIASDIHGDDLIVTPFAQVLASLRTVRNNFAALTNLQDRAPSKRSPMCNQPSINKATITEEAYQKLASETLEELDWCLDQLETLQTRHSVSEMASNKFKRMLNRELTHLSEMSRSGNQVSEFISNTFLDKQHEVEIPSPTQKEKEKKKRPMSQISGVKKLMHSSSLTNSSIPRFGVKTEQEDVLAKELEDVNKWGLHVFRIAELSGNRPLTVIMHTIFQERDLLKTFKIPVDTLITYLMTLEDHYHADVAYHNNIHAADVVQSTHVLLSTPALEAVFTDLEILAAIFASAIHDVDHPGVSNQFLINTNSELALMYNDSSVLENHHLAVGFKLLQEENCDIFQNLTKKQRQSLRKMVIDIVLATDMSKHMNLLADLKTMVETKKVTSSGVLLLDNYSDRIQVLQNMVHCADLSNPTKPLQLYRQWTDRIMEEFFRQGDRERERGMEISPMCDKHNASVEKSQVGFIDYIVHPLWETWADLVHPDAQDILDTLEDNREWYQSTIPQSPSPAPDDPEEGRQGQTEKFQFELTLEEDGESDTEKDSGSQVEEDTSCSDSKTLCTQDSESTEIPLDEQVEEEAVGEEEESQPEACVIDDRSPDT
Sequence of Sodium-dependent dopamine transporter (Q01959 whole entry): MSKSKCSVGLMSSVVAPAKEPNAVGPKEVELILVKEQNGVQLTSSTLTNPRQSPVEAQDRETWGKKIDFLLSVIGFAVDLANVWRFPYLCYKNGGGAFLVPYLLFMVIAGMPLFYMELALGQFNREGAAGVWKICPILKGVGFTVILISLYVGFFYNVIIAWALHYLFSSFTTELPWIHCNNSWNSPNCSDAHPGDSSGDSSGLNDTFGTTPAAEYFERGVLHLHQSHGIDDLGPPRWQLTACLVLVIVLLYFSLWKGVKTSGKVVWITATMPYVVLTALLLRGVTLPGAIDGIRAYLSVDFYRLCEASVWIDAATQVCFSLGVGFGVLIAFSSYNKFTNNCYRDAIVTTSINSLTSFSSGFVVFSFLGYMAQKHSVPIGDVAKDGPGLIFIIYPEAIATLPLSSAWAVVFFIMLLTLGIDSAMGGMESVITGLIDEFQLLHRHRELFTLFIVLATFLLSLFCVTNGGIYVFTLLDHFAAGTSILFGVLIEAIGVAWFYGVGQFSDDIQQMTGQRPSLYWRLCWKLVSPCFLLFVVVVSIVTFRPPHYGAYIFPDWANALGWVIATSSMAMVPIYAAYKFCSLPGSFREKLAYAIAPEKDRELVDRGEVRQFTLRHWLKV

The term AC50 denotes the midpoint of the concentration-response curve, whichever way the signal moves. A lower AC50 goes with activity at low concentration. For `CC1OC2(CS1)CN1CCC2CC1` (stereo not drawn) [CEVIMELINE], the AC50 was over 10 µM at Adenosine receptor A3; over 10 µM in assay [1]; over 10 µM in assay [2]; 3.03 µM in assay [3]; over 10 µM in assay [4]; over 30 µM on Histamine H2 receptor. Also, the AC50 was over 30 µM in [5], over 10 µM in assay [6], over 10 µM at Thromboxane A2 receptor and over 10 µM in assay [7].

On to `O=C(O)c1cn(C2CC2)c2cc(N3CCNCC3)c(F)cc2c1=O` [CIPROFLOXACIN], for which the AC50 (on Adenosine receptor A3; in assay [2]; in assay [5]; in [6]; at Thromboxane A2 receptor) was over 30 µM each time.

In the case of `CC(C(=O)O)c1ccc(-c2ccccc2)c(F)c1` (stereo not drawn) [FLURBIPROFEN], the AC50 (at Adenosine receptor A3; in [1]; in [2]; in assay [3]; in [4]; at Histamine H2 receptor) was over 10 µM throughout. Further, the AC50 in assay [5] is over 30 µM; in assay [6], over 10 µM; at Thromboxane A2 receptor, over 10 µM; in [7], over 10 µM.

With `Oc1ccc2c(c1)CC[C@H](c1ccccc1)[C@@H]2c1ccc(OCCN2CCCC2)cc1` [LASOFOXIFENE], the AC50 was 5.8 µM on Adenosine receptor A3; over 3 µM in [2]; 15 µM in [3]; over 30 µM in assay [4]; over 30 µM on Histamine H2 receptor; 15 µM in [5]. For the same molecule, the results for the AC50 (in [6]; in assay [7]; on Histamine H3 receptor) were over 30 µM, 0.117 µM and 0.99 µM, respectively.

With `O=[N+]([O-])c1ccc(O)c2ncccc12` [NITROXOLINE], the AC50 in assay [1] was over 30 µM; in assay [3] it was over 30 µM; in assay [4], over 30 µM; at Histamine H2 receptor, over 30 µM; in [5], 3.2 µM.

Consider `CCCCC1C(=O)N(c2ccccc2)N(c2ccccc2)C1=O` [PHENYLBUTAZONE], for which the AC50 is over 30 µM at Adenosine receptor A3; over 10 µM in [1]; over 30 µM in assay [2]; over 10 µM in assay [3]; over 10 µM in assay [4]; over 10 µM on Histamine H2 receptor. For the same molecule, the AC50 (in [5]; in [6]; on Thromboxane A2 receptor; in assay [7]) was over 30 µM each time.

In the case of `CC[C@@H]([C@H](C)O)n1ncn(-c2ccc(N3CCN(c4ccc(OC[C@@H]5CO[C@@](Cn6cncn6)(c6ccc(F)cc6F)C5)cc4)CC3)cc2)c1=O` [POSACONAZOLE], the AC50 (on Adenosine receptor A3; in assay [5]; in [7]) was over 30 µM in each case.

Regarding `CNCc1ccc(-c2[nH]c3cc(F)cc4c3c2CCNC4=O)cc1` [RUCAPARIB], the AC50 in [2] was over 30 µM; in assay [3] it was over 10 µM; in assay [5], 10 µM; in assay [6], over 30 µM; on Thromboxane A2 receptor, over 30 µM; in assay [7] it was over 30 µM.

In [1], `C[C@H](Cc1cc2c(c(C(N)=O)c1)N(CCCO)CC2)NCCOc1ccccc1OCC(F)(F)F` [SILODOSIN] gave an AC50 of 10 µM.

Consider `CCC(=O)O[C@H]1CC[C@H]2[C@@H]3CCC4=CC(=O)CC[C@]4(C)[C@H]3CC[C@]12C` [TESTOSTERONE PROPIONATE], for which the AC50 (at Adenosine receptor A3; in assay [1]; in assay [2]; in assay [3]; in assay [4]; on Histamine H2 receptor) was over 10 µM throughout. For the same molecule, the AC50 in [5] is over 30 µM; in assay [6], over 10 µM; at Thromboxane A2 receptor it was over 10 µM; in assay [7] it was over 10 µM.

`Cc1cc2cc3c(C)cc(=O)oc3c(C)c2o1` [TRIOXSALEN]: the AC50 on Adenosine receptor A3 was over 30 µM; in [1] it was over 10 µM; in assay [2] it was over 10 µM; in [3], over 10 µM; in assay [4], over 10 µM; at Histamine H2 receptor it was over 10 µM. Also, the AC50 (in assay [6]; at Thromboxane A2 receptor; in assay [7]) was over 10 µM throughout.
